# Experimental data published in patent publication US6048853A, “1-arylphthalazine antagonists of excitatory amino acid receptors” (Bearsden Bio, Inc., priority 1996, dated 2000).
# Like-named read-outs stand apart in the source and are kept apart here.
# Columns and labels:
# Male NIH Swiss mice = test: Maximum Electro Shock (MES) Seizure Test; type: in vivo
# Method: This test is to determine the extent of protection by a test compound in a seizure model. This model is described by Rogawski et al. (Epilepsy Research, 15:179-184, 1993). Male NIH Swiss mice (25-30 g) were injected ip with the test drug. […] Animals failing to show tonic hind limb extension were scored as protected. Compounds may be selected which are active in this model.
# The results of this assay using compounds prepared as described in Examples 49, 50 and 102 are shown below in Table 2.
# Mice = test: Subcutaneous Metrazol (scMET) Seizure Test; type: in vivo; details: dose 3 mg/kg; time 0.5 hr; Metrazol 90 mg/kg sc
# Method: This test is to determine the extent of protection by a test compound in a seizure model. The method used is that of Chen et al. (Proc. Soc. Exp. Biol. Med., 87:334, 1954). Mice are randomly assigned to vehicle or treatment groups of 3-10 animals per group and then dosed accordingly. Metrazol (pentylenetetrazol) 90 mg/kg is administered subcutaneously (sc) at different time points (0.25, 0.5, 1, 2, 4 hr) after the treatment or control groups. The mice individually housed in clear runs and observed for the presence or absence of clonic seizure activity (>5 s duration) for 30 min after metrazol dosing. A compound is considered active if no seizure is observed. Data is analyzed using aquantal measure (protection/number tested).
# The results of this assay using compounds prepared as described in Examples 49 and 50 are shown below in Table 3.
# rat [1] = details: cited from earlier work
# rat [2] = details: compared with NBQX; cited from earlier work
smiles,measurement,setting,value
"Nc1ccc(-c2nncc3cc4c(cc23)OCO4)cc1 [Example 49, 1-(4-Aminophenyl)-6,7-methylendioxyphthalazine]",MES Score (protected/no. tested),"Male NIH Swiss mice; dose 3 mg/kg ip, time 0.5 hours",1/1
same,MES Score (protected/no. tested),"Male NIH Swiss mice; dose 15 mg/kg ip, time 2 hours",2/4
same,scMET Score (protect./no. tested),Mice,1/5
"Cc1nnc(-c2ccc(N)cc2)c2cc3c(cc12)OCO3 [Example 50, 4-(4-Aminophenyl)-1-methyl-6,7-methylenedioxyphthalazine]",MES Score (protected/no. tested),"Male NIH Swiss mice; dose 1 mg/kg ip, time 4 hours",1/7
same,scMET Score (protect./no. tested),Mice,1/5
"CC(=O)Nc1ccc(-c2nnc(C)c3cc4c(cc23)OCO4)cc1 [Example 102, 4-(4-acetylaminophenyl)-1-methyl-6,7-methylenedioxyphthalazine]",MES Score (protected/no. tested),"Male NIH Swiss mice; dose 100 mg/kg ip, time 4 hours",3/3
CC1=NN=C(c2ccc(N)cc2)c2cc3c(cc2C1)OCO3 [GYKI 52466],reduction of cortical infarct volume,rat [1]; given continuously for 2 hours just after occlusion,68%
same,reduction of cortical infarct volume,rat [1]; given one hour after occlusion,48%
same,efficacy in global ischemia model,rat [2],as effective as the glutamate site competitive antagonist NBQX
